Columns and labels:
[1] = tested on: male Sprague Dawley rats with STZ-induced diabetes; assay: Mixed meal tolerance test in male rats with streptozotocin induced diabetes; format: in vivo, rat; details: for Glucose Values 0 min. / Glucose Values 20 min. / Glucose Values 40 min. / Glucose Values 60 min. / Glucose Values 120 min. / Baseline Adjusted AUC: mean ± SE; for Baseline Adjusted AUC: glucose AUC in MTT
Experimental: Rats which have been administered streptozotocin (STZ) develop diabetes mellitus. Agents which modulate glucose levels in these animals are believed to be useful in the treatment of diabetes in humans.
The test compound is formulated by adding a vehicle of 1% hydroxyethylcellulose (HEC), 0.25% Tween® 80 w/ antifoam 0.05% to preweighed test compound to make a 2.5 mg/ml solution. The mixture is probe sonicated for approximately 30 seconds. The resulting solution is used as a stock solution, from which the lower concentration dose solutions are prepared by dilution with the vehicle. STZ, 45 mg/kg, is formulated by dissolving in 0.1M Citrate buffer in 3 ml aliquots and stored in the dark on ice, when not being administered. A high fat content mixed meal (Bio-Serv® Rodent Diet F3282 High Fat) comprising Fat Calories (60%), Carbohydrate Calories (26%) and Protein Calories (15%) is utilized. Single housed Sprague Dawley rats are allowed to acclimate for a period of 3 to 7 days.
In an effort to ensure that the animals have not recently fed, STZ is administered in the afternoon, approximately six hours into the light cycle (lights on 6 am, lights off 6 pm). The animals are anesthetized with isoflurane and STZ is delivered via tail vein injection. Once animals regain consciousness, they are returned to housing and allowed to recover for 7 days.
On the two days immediately prior to the meal tolerance test (MTT) all rats are given a small amount (2-4 g) of the F3282 diet, so they became acclimated to it prior to receiving it during the experiment. On the evening before the experiment, the rats are moved into clean cages and their food is removed. The following morning animals are weighed and a blood sample is taken by tail snip for glucose measurement (Abbott AlphaTrak glucometers: code 29). Animals are grouped n=6 based on fasted body weight and glucose. Thirty minutes after the test compound is orally administered, two glucose measurements are collected. Then a five gram pellet of Bio-Serv® diet 3282 is given. After 20 minutes remaining food is taken away and weighed. Blood samples are taken at 20, 40, 60 and 120 minutes for glucose measurement.

[2] = tested on: normal glycemic C57Bl/6 mouse; assay: Oral glucose tolerance test (OGTT); format: in vivo; details: for Glucose 0 Minute: 3 h before dextrose 3 g/kg; for Glucose 0 Minute / Glucose 20 Minute / Glucose 40 Minute / Glucose 60 Minute / Glucose 120 Minute / Baseline Adjusted AUC: mean ± SE; for Glucose 20 Minute: 20 min after dextrose; for Glucose 40 Minute: 40 min after dextrose; for Glucose 60 Minute: 60 min after dextrose; for Glucose 120 Minute: 120 min after dextrose; for Baseline Adjusted AUC: glucose AUC during OGTT
Experimental: The test compound is formulated by adding a vehicle of 1% hydroxyethylcellulose, 0.25% Tween® 80 w/ antifoam 0.05% to preweighed test compound to make a 1 mg/ml solution. The mixture is probe sonicated for approximately 30 seconds. The resulting solution is used as a stock solution from which the lower concentration dose solutions are prepared by dilution with the vehicle.
Single housed C57Bl/6 mice are fasted overnight by removing access to food the late afternoon before test day. The following morning, the mice are weighed and a single fasting blood sample is taken by tail snip to measure glucose by glucometer (Roche AccuChek). Study groups (n=5) are determined based on fasted blood glucose and comprise preferably animals in the range of 80-100 mg/dl glucose.
After grouping, the first mouse is orally gavaged with 10 ml/kg test compound preparation and a timer started. Each subsequent animal is dosed a minute and a half apart. Three hours after the first compound treatment is started, a baseline blood sample is taken for measuring glucose (from the first animal, via tail snip). The animal is then immediately given an oral dose of 50% dextrose (Hospira) at 3 g/kg. Blood samples are taken for glucose, exactly a minute and half apart, by tail vein so that blood is collected in each animal at 20, 40, 60 and 120 minutes after the dextrose dose.

[3] = result in words, Example 1 10 and 30 mg/kg, Acarbose 60 mg/kg

**Q.** `C[C@H]1O[C@H](O[C@H]2[C@H](O)[C@@H](O)[C@@H](O[C@H]3[C@H](O)[C@@H](O)C(O)O[C@@H]3CO)O[C@@H]2CO)[C@H](O)[C@@H](O)[C@@H]1N[C@H]1C=C(CO)[C@@H](O)[C@H](O)[C@H]1O` (stereo partly shown) [Acarbose, reference compound] was tested. Which “Glucose Values 0 min.” value ([1]; 60 mg/kg oral) did it give?
**A.** 124 ± 16.9 mg/dL

**Q.** What about the “Glucose Values 20 min.” value ([1]; 60 mg/kg oral) of the same molecule?
**A.** 181 ± 22.8 mg/dL

**Q.** And the “Glucose Values 40 min.” value ([1]; 60 mg/kg oral)?
**A.** 301.3 ± 51.2 mg/dL

**Q.** What about the “Glucose Values 60 min.” value ([1]; 60 mg/kg oral) of the same molecule?
**A.** 371.5 ± 63.9 mg/dL

**Q.** And the “Glucose Values 120 min.” value ([1]; 60 mg/kg oral)?
**A.** 433.7 ± 83 mg/dL

**Q.** What about the “Baseline Adjusted AUC” value ([1]; 60 mg/kg oral) of the same molecule?
**A.** 23877 ± 4649

**Q.** And the “glucose baseline adjusted AUCs in the MTT” value [1, 3]?
**A.** significantly decreases

**Q.** What about the “glucose in the MTT compared to the vehicle controls” value [1, 3] of the same molecule?
**A.** did not significantly decrease

**Q.** Which “Glucose 0 Minute” value ([2]; 0.3 mg/kg oral) does the source give for `Cc1cc(/C=C/CCN2CCCC3(CCNCC3)C2)ccc1Cc1c(O[C@@H]2O[C@H](CO)[C@@H](O)[C@H](O)[C@H]2O)n[nH]c1C(C)C` [Example 1, 4-{4-[(1E)-4-(2,9-diazaspiro[5.5]undec-2-yl)but-1-en-1-yl]-2-methylbenzyl}-5-(propan-2-yl)-1H-pyrazol-3-yl beta-D-glucopyranoside] here?
**A.** 78 ± 4.2 mg/dL

**Q.** What about the “Glucose 20 Minute” value ([2]; 0.3 mg/kg oral) of the same molecule?
**A.** 185 ± 13.7 mg/dL

**Q.** What about the “Glucose 40 Minute” value ([2]; 0.3 mg/kg oral) of the same molecule?
**A.** 197 ± 14.7 mg/dL

**Q.** What about the “Glucose 60 Minute” value ([2]; 0.3 mg/kg oral) of the same molecule?
**A.** 164 ± 6.3 mg/dL

**Q.** What about the “Glucose 120 Minute” value ([2]; 0.3 mg/kg oral) of the same molecule?
**A.** 121 ± 11.8 mg/dL

**Q.** What about the “Baseline Adjusted AUC” value ([2]; 0.3 mg/kg oral) of the same molecule?
**A.** 5400 ± 519^

**Q.** What about the “Glucose 0 Minute” value ([2]; 1 mg/kg oral) of the same molecule?
**A.** 76 ± 3.3 mg/dL

**Q.** What about the “Glucose 20 Minute” value ([2]; 1 mg/kg oral) of the same molecule?
**A.** 147 ± 8.3 mg/dL

**Q.** And the “Glucose 40 Minute” value ([2]; 1 mg/kg oral)?
**A.** 171 ± 11.1 mg/dL

**Q.** And the “Glucose 60 Minute” value ([2]; 1 mg/kg oral)?
**A.** 162 ± 5.8 mg/dL

**Q.** What about the “Glucose 120 Minute” value ([2]; 1 mg/kg oral) of the same molecule?
**A.** 109 ± 7.3 mg/dL

**Q.** And the “Baseline Adjusted AUC” value ([2]; 1 mg/kg oral)?
**A.** 4158 ± 374^

**Q.** What about the “Glucose 0 Minute” value ([2]; 3 mg/kg oral) of the same molecule?
**A.** 72 ± 2.6 mg/dL

**Q.** And the “Glucose 20 Minute” value ([2]; 3 mg/kg oral)?
**A.** 133 ± 7.1 mg/dL

**Q.** What about the “Glucose 40 Minute” value ([2]; 3 mg/kg oral) of the same molecule?
**A.** 150 ± 7.5 mg/dL

**Q.** And the “Glucose 60 Minute” value ([2]; 3 mg/kg oral)?
**A.** 155 ± 7.2 mg/dL

**Q.** What about the “Glucose 120 Minute” value ([2]; 3 mg/kg oral) of the same molecule?
**A.** 115 ± 10 mg/dL

**Q.** And the “Baseline Adjusted AUC” value ([2]; 3 mg/kg oral)?
**A.** 3606 ± 421

**Q.** And the “Glucose 0 Minute” value ([2]; 10 mg/kg oral)?
**A.** 78 ± 5.4 mg/dL

**Q.** And the “Glucose 20 Minute” value ([2]; 10 mg/kg oral)?
**A.** 124 ± 1.2 mg/dL

**Q.** And the “Glucose 40 Minute” value ([2]; 10 mg/kg oral)?
**A.** 137 ± 5.4 mg/dL

**Q.** What about the “Glucose 60 Minute” value ([2]; 10 mg/kg oral) of the same molecule?
**A.** 138 ± 6.1 mg/dL

**Q.** What about the “Glucose 120 Minute” value ([2]; 10 mg/kg oral) of the same molecule?
**A.** 114 ± 4.3 mg/dL

**Q.** What about the “Baseline Adjusted AUC” value ([2]; 10 mg/kg oral) of the same molecule?
**A.** 2693 ± 309

**Q.** And the “average maximum concentration of plasma glucose (Cmax) during the OGTT” value ([2]; 0.3-10 mg/kg, result in words)?
**A.** dose dependently decreases

**Q.** What about the “average time that it takes for glucose to reach maximum concentration (Tmax)” value ([2]; 0.3-10 mg/kg, result in words) of the same molecule?
**A.** increasing

**Q.** What about the “Glucose Values 0 min.” value ([1]; 10 mg/kg oral) of the same molecule?
**A.** 139 ± 16.1 mg/dL

**Q.** And the “Glucose Values 20 min.” value ([1]; 10 mg/kg oral)?
**A.** 221.2 ± 26.3 mg/dL

**Q.** And the “Glucose Values 40 min.” value ([1]; 10 mg/kg oral)?
**A.** 268.7 ± 29 mg/dL

**Q.** What about the “Glucose Values 60 min.” value ([1]; 10 mg/kg oral) of the same molecule?
**A.** 330 ± 36.7 mg/dL

**Q.** And the “Glucose Values 120 min.” value ([1]; 10 mg/kg oral)?
**A.** 490.8 ± 39.2 mg/dL

**Q.** And the “Baseline Adjusted AUC” value ([1]; 10 mg/kg oral)?
**A.** 22432 ± 2234

**Q.** And the “Glucose Values 0 min.” value ([1]; 30 mg/kg oral)?
**A.** 137.4 ± 26.9 mg/dL

**Q.** And the “Glucose Values 20 min.” value ([1]; 30 mg/kg oral)?
**A.** 195.4 ± 44.8 mg/dL

**Q.** And the “Glucose Values 40 min.” value ([1]; 30 mg/kg oral)?
**A.** 232 ± 52.2 mg/dL

**Q.** And the “Glucose Values 60 min.” value ([1]; 30 mg/kg oral)?
**A.** 263.9 ± 62.2 mg/dL

**Q.** What about the “Glucose Values 120 min.” value ([1]; 30 mg/kg oral) of the same molecule?
**A.** 355.3 ± 73.2 mg/dL

**Q.** And the “Baseline Adjusted AUC” value ([1]; 30 mg/kg oral)?
**A.** 14649 ± 3673
